Assay results: US11214540B2, “Compositions for treating neurodegenerative diseases” (COGNITION THERAPEUTICS, INC., priority 2017, dated 2022)
Where two headings read alike, the source gives them in different places.

How the values were obtained:
[1] = system: Abeta oligomer-induced membrane trafficking deficits in primary hippocampal neurons; test: Membrane Trafficking/Exocytosis (MTT) assay, Abeta oligomer effect on neurons; format: cell-based, rat;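 for EC50 Abeta: compound potency for inhibiting the Abeta oligomer effect on exocytosis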
Experimental: Compounds according to any embodiment described herein, were tested for their ability to inhibit an amyloid beta effect on the cells. The compounds generally were able to inhibit the amyloid beta effect as measured by a membrane trafficking/exocytosis assay (MTT assay). The rationale for this assay was as follows:
The present exocytosis assay was adapted for use with mature primary neuronal cultures grown for 3 weeks in vitro. See WO 2011/106785, which is incorporated herein by reference in its entirety. Abeta oligomers cause a dose-dependent decrease in the amount of intracellular vesicles (puncta) filled with reduced purple formazan as measured via image processing using a Cellomics VTI automated microscopy system. […] Increasing the amount of Abeta oligomers eventually results in overt toxicity. Thus, the concentration of neuroactive Abeta oligomers used in the assay is much lower than that causing cell death. […] When configured in this manner, the assay is able to detect compounds that inhibit nonlethal effects of Abeta oligomer whether these compounds act via disruption of oligomers, inhibition of oligomer binding to neurons, or counteraction of signal transduction mechanisms of action initiated by oligomer binding.
Primary hippocampal neurons from E18 Sprague-Dawley rat embryos were plated at optimized concentrations in 384 well plates in NB media (Invitrogen). Neurons were maintained in cultures for 3 weeks, with twice weekly feeding of NB media with N2 supplement (Invitrogen).
A test compound was added to cells at concentrations ranging from 100 uM to 0.001 nM followed by addition of vehicle or Abeta oligomer preparations (3 μM total Abeta protein concentration), and incubated for 1 to 24 hr at 37° C. in 5% CO2. MTT reagent (3-(4,5-dimethylthizaol-2yl)-2,5diphenyl tetrazolium bromide) (Roche Molecular Biochemicals) was reconstituted in phosphate buffered saline to 5 mg/mL. 10 μL of MTT labeling reagent is added to each well and incubated at 37° C. for 1 h, then imaged. Exocytosis was assessed by automated microscopy and image processing to quantify the amount of endocytosed and exocytosed formazan.
Each assay plate was formatted so that compounds are tested with and without Abeta oligomer on each plate. This design eliminates toxic or metabolically active compounds early on in the screening cascade (at the level of the primary screen). Reduced formazan was first visible in intracellular vesicles. Eventual formazan exocytosis was accelerated via Abeta oligomers.
Human amyloid peptide 1-42 was obtained from a number of commercial vendors such as California Peptide, with lot-choice contingent upon quality control analysis. Quality controls of oligomer preparations consist of Westerns to determine oligomer size ranges and relative concentrations, and the MTT assay to confirm exocytosis acceleration without toxicity. Toxicity was monitored in each image-based assay via quantification of nuclear morphology visualized with the DNA binding blue dye DAPI (Invitrogen). Nuclei that are fragmented are considered to be in late stage apoptosis (Majno and Joris '95) and the test would be rejected. Peptide lots producing unusual peptide size ranges or significant toxicity at a standard 1.5 μM concentration on neurons would also be rejected.
Data handling and analysis were accomplished by Cellomics VTI image analysis software and STORE automated database software. Because of the low dynamic range and neuronal well-to-well variability after three weeks in culture, statistical comparisons are made via pairwise Tukey-Kramer analysis to determine the significance of the separation between compound+Abeta oligomers from Abeta alone, and between compound alone from vehicle. The ability of mature primary neurons to more closely approximate the electrophysiologically mediated signal transduction network of the adult brain justifies this screening strategy. […]

log P = format: physicochemical
Source text: The term “log P” refers to the partition coefficient of a compound. The partition coefficient is the ratio of concentrations of un-ionized compound in each of two solution phases, for example, octanol and water. To measure the partition coefficient of ionizable solute compounds, the pH of the aqueous phase is adjusted such that the predominant form of the compound is un-ionized. The logarithm of the ratio of concentrations of the un-ionized solute compound in the solvents is called log P. The log P is a measure of lipophilicity. For example, log Poct/wat=log([solute]octanol/[solute]un-ionized,water).
Combined Results for particular compounds described herein, with respect to log P, membrane trafficking (uM), sigma-2 receptor affinity, sigma-1 receptor affinity microsomal stability in mouse liver microsomes (MLM) (t1/2, min), t1/2 normalized to CT)10914 and in vitro toxicity potassium channel hERG (IC50, nM) are provided in Table 1: […]

[2] = membrane trafficking, read-out: EC50 Abeta

Row | Compound | effect on membrane trafficking deficits induced by AD brain-derived Abeta oligomers ([1]; AD brain-derived Abeta oligomers) | effect on trafficking when dosed in the absence of Abeta ([1]; substance alone, no Abeta oligomer) | EC50 [1, 2] [µM] | log P (log P) | EC50 ([1]; Abeta oligomers dosed alone on neurons, read-out: EC50 in the membrane trafficking assay) [µM]
1 | COc1cc(CCC(C)NCc2ccc(C(F)(F)F)cc2)ccc1O (centres unmarked) [4-(3-(4-(trifluoromethyl)benzylamino)butyl)-2-methoxyphenol, reference compound] | eliminates the membrane trafficking deficits | does not affect trafficking |  |  | 
2 | COc1ccc(C(C)(C)CC(C=C(C)C)N2CCC(C(C)C)CC2)cc1 (centres unmarked) [Compound 86] |  |  | 0.22 | 6.37 | 
3 | CC(C)=CC(CC(C)(C)c1ccc(Cl)cc1)N1CCC(C(C)C)CC1 (centres unmarked) [Compound 87] |  |  | 20 | 7.13 | 
4 | CC(C)=CC(CC(C)(C)c1ccc(Cl)cc1)N1CCC(c2ccnc(N(C)C)c2)CC1 (centres unmarked) [Compound 90] |  |  | 20 | 7.02 | 
5 | CC(C)=CC(CCc1ccc(F)cc1)N1CCOCC1 (centres unmarked) [Compound 91] |  |  | 20 | 3.99 | 
6 | CC(C)=CC(CCc1ccc(F)cc1)N1CCCCC1 (centres unmarked) [Compound 92] |  |  | 20 | 5.06 | 
7 | COc1ccc(C(C)(C)CC(NCC2CCOCC2)c2ccccc2)cc1 (centres unmarked) [Compound 115] |  |  | 20 | 4.9 | 
8 | CC(C)=CC(CC(C)(C)c1ccc(Cl)cc1)N1CCC(C(F)(F)F)CC1 (centres unmarked) [Compound 123] |  |  | 0.3 | 6.67 | 
9 | CC(C)=CC(CC(C)(C)c1ccc(F)cc1)N1CCC(Oc2ccccc2)CC1 (centres unmarked) [Compound 124] |  |  | 0.2 | 6.45 | 
10 | CC(C)=CC(CC(C)(C)c1ccc(F)cc1)N1CCC(N2CCCC2)CC1 (centres unmarked) [Compound 125] |  |  | 0.25 | 5.23 | 
11 | CC(C)=CC(CC(C)(C)c1ccc(C(F)(F)F)cc1)N1CCC(Oc2ccccc2)CC1 (centres unmarked) [Compound 128] |  |  | 20 | 7.19 | 
12 | CC(C)=CC(CC(C)(C)c1ccc(C(F)(F)F)cc1)N1CCC(N2CCCC2)CC1 (centres unmarked) [Compound 130] |  |  | 0.3 | 5.97 | 
13 | CC(C)=CC(CC(C)(C)c1ccc(F)cc1)N1CCC(C)(C)CC1 (centres unmarked) [Compound 131] |  |  | 20 | 6.24 | 
14 | CC(C)=CC(CC(C)(C)c1ccc(Cl)cc1)N1CCC(Oc2ccccc2)CC1 (centres unmarked) [Compound 132] |  |  | 20 | 6.91 | 
15 | CC(C)=CC(CC(C)(C)c1ccc(F)cc1)N1CCC(N2CCCCC2)CC1 (centres unmarked) [Compound 133] |  |  | 2.2 | 5.68 | 
16 | CC(C)=CC(CC(C)(C)c1ccc(F)cc1)N1CCC(F)CC1 (centres unmarked) [Compound 134] |  |  | 20 | 5.01 | 
17 | CC(C)=CC(CC(C)(C)c1ccc(Cl)cc1)N1CCC(N2CCCC2)CC1 (centres unmarked) [Compound 135] |  |  | 20 | 5.69 | 
18 | CC(C)=CC(CC(C)(C)c1ccc(C(F)(F)F)cc1)N1CCC(N2CCOCC2)CC1 (centres unmarked) [Compound 137] |  |  | 0.15 | 5.34 | 
19 | CC(C)=CC(CC(C)(C)c1ccc(Cl)cc1)N1CCC(N2CCOCC2)CC1 (centres unmarked) [Compound 138] |  |  | 0.45 | 5.07 | 
20 | COCCCC1CCN(C(C=C(C)C)CC(C)(C)c2ccc(F)cc2)CC1 (centres unmarked) [Compound 139] |  |  | 20 | 6.03 | 
21 | COCCCC1CCN(C(C=C(C)C)CC(C)(C)c2ccc(N3CCOCC3)cc2)CC1 (centres unmarked) [Compound 140] |  |  | 20 | 5.78 | 

Row | Compound | effect on membrane trafficking deficits induced by AD brain-derived Abeta oligomers ([1]; AD brain-derived Abeta oligomers) | effect on trafficking when dosed in the absence of Abeta ([1]; substance alone, no Abeta oligomer) | EC50 [1, 2] [µM] | log P (log P) | EC50 ([1]; Abeta oligomers dosed alone on neurons, read-out: EC50 in the membrane trafficking assay) [µM]
22 | CC(C)=CC(CC(C)(C)c1ccc(C(F)(F)F)cc1)N1CCC(F)CC1 (centres unmarked) [Compound 141] |  |  | 1.6 | 5.74 | 
23 | COC1CCN(C(C=C(C)C)CC(C)(C)c2ccc(Cl)cc2)CC1 (centres unmarked) [Compound 142] |  |  | 20 | 5.22 | 
24 | CC(C)=CC(CC(C)(C)c1ccc(N2CCOCC2)cc1)N1CCC(C(F)(F)F)CC1 (centres unmarked) [Compound 143] |  |  | 20 | 5.96 | 
25 | CC(C)=CC(CC(C)(C)c1ccc(N2CCOCC2)cc1)N1CCC(CCO)CC1 (centres unmarked) [Compound 144] |  |  | 20 | 4.69 | 
26 | COC1CCN(C(C=C(C)C)CC(C)(C)c2ccc(F)cc2)CC1 (centres unmarked) [Compound 145] |  |  | 20 | 4.76 | 
27 | CC(C)=CC(CC(C)(C)c1ccc(Cl)cc1)N1CCC(N2CCCCC2)CC1 (centres unmarked) [Compound 146] |  |  | 0.025 | 6.14 | 
28 | CC(C)=CC(CC(C)(C)c1ccc(N2CCOCC2)cc1)N1CCC(C2CCOCC2)CC1 (centres unmarked) [Compound 149] |  |  | 20 | 5.59 | 
29 | CC(C)=CC(CC(C)(C)c1ccc(N2CCOCC2)cc1)N1CCC(O)CC1 (centres unmarked) [Compound 150] |  |  | 20 | 3.86 | 
30 | CC(C)=CC(CC(C)(C)c1ccc(F)cc1)N1CCN(C(=O)C2CC2)CC1 (centres unmarked) [Compound 151] |  |  | 20 | 4.65 | 
31 | CC(C)=CC(CC(C)(C)c1ccc(Cl)cc1)N1CCN(C(=O)C2CC2)CC1 (centres unmarked) [Compound 152] |  |  | 0.26 | 5.11 | 
32 | CC(C)=CC(CC(C)(C)c1ccc(F)cc1)N1CCN(C(=O)c2ccccc2)CC1 (centres unmarked) [Compound 153] |  |  | 0.5 | 5.73 | 
33 | CC(C)=CC(CC(C)(C)c1ccc(Cl)cc1)N1CCN(S(C)(=O)=O)CC1 (centres unmarked) [Compound 156] |  |  | 0.34 | 3.83 | 
34 | CC(C)=CC(CC(C)(C)c1ccc(Cl)cc1)N1CCC(OC(C)C)CC1 (centres unmarked) [Compound 158] |  |  | 2.88 | 5.99 | 
35 | CC(C)=CC(CC(C)(C)c1ccc(F)cc1)N1CCC(CCOC(C)C)CC1 (centres unmarked) [Compound 159] |  |  | 10 | 6.36 | 
36 | CC(C)=CC(CC(C)(C)c1ccc(Cl)cc1)N1CCC(CCOC(C)C)CC1 (centres unmarked) [Compound 160] |  |  | 15 | 6.82 | 
37 | CC(C)=CC(CC(C)(C)c1ccc(C(F)(F)F)cc1)N1CCN(S(C)(=O)=O)CC1 (centres unmarked) [Compound 161] |  |  | 0.27 | 4.1 | 
38 | COCCOCCC1CCN(C(C=C(C)C)CC(C)(C)c2ccc(Cl)cc2)CC1 (centres unmarked) [Compound 162] |  |  | 15 | 6 | 
39 | COCCOCCC1CCN(C(C=C(C)C)CC(C)(C)c2ccc(F)cc2)CC1 (centres unmarked) [Compound 163] |  |  | 15 | 5.54 | 
40 | CC(CC(C)(C)c1ccc(Cl)cc1)N1CCC(O)C1 (centres unmarked) [Compound 255] |  |  | 15 |  | 
41 | Synthetic Abeta oligomers: Abeta 1-42 oligomers made according to published methods, used as positive controls [reference compound] |  |  |  |  | 0.82
